These results are taken from EP2832347B1, “Method for identifying patchouli odorant materials” (Takasago International Corporation, priority 2013, dated 2015).

The EC50 is the concentration needed to bring the measured effect to its halfway point. High values mean a need for much substance, low ones an effect from little substance.

Assay [1] has as its system seven other OR11A1-related olfactory receptors. Description: CRE-luciferase reporter assay on OR11A1 related receptors. The format is cell-based, human. To be noted: 10/30/100 µM. On the procedure:
(§1) The experiments were performed using a HEK293 cell line (deposited at the ATCC under accession n° CRL-1573) stably expressing the Gαolf G-protein and the cyclic nucleotide gated ion channel A2 subunit (CNGA2) (herein called HEKOlf). As described by Shirokova et al., 2005, the human Gαolf cDNA was cloned into the mammalian expression vector pPuro and cDNA for the bovine cyclic nucleotide gated ion channel A2 (CNGA2) subunit was cloned into the mammalian expression vector pcDNA3. Both constructs were transfected using Lipofectamine2000 (Invitrogen) following the manufacturer's instructions. Cellular clones stably expressing Gαolf and CNGA2 were obtained by antibiotic selection with 0.5µg/ml Puromycin and 200µg/ml Geneticin.
(§2) All transient transfections were performed with Lipofectamine 2000 (Invitrogen) according to the manufacturer's protocol. 10µl Lipofectamine 2000 were diluted in 500 µl DMEM and incubated for 5 minutes at room temperature. At the same time, 3µg of plasmid DNA were diluted in 500µl DMEM and added to the Lipofectamine 2000 mix to obtain a final volume of 1000µl. After incubation for a further 30 minutes at room temperature, the DNA-Lipofectamine complex was added to 1000µl of a cell suspension containing 1.600.000 cells/ml. Subsequently, 25µl per well of the complete mixture were seeded in black 384 well polystyrene assay plates. 25µl DMEM containing 20% FBS were added to each well 3 hours post-transfection.
(§3) The cDNAs for all olfactory receptors and an empty control vector were co-transfected with pGL4.29 (Promega). The pGL4.29 vector contains a cyclic adenosine monophosphate (cAMP) response element (CRE) that drives the transcription of the luciferase reporter gene luc2P (Photinus pyralis). luc2P is a synthetically-derived luciferase sequence with humanized codon optimization that is designed for high expression and reduced anomalous transcription.
In this assay, the interaction of an odorant with its cognate olfactory receptor leads to the activation of the human Gαolf G-protein. Gαolf is a stimulatory G-protein (Gαs) and activates adenylate cyclase, which converts adenosine triphosphate (ATP) into cAMP. Therefore, the activity of the transcribed luciferase can be used as an indication of olfactory receptor activation. […] The cells were then transferred into an automated fluorometric imaging plate reader (FLIPR^TETRA, Molecular Devices). […]
(§4) The data obtained from different well replicates were analyzed with Excel, ScreenWorks, and SigmaPlot 10. […] The mean and standard deviation of the resulting fold of change values were calculated and plotted in vertical bar charts or concentration-response curves fitted by the SigmaPlot 10 software. […]
(A reporter such as luciferase makes a cellular process visible.)

The next assay has as its target T1, OR11L1 (Homo sapiens, UniProt Q8NGX0).
T1 construct: expressed in transfected cells; host or cells: HEKOlf (HEK293 stably expressing human Galpha-olf and bovine CNGA2)
T1 sequence (Q8NGX0 1-322): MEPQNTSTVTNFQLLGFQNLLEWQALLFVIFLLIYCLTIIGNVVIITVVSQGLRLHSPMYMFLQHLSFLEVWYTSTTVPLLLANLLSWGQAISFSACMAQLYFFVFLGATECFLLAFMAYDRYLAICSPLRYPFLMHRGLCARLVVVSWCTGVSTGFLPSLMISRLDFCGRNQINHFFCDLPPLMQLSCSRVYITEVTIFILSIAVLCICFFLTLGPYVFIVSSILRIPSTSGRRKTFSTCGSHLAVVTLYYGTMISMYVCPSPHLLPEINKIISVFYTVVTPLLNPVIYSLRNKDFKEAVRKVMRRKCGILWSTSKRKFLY
As to the kind of experiment: CRE-luciferase reporter assay in HEKOlf cells transiently transfected with OR11L1. The format is cell-based. To be noted: Example 3; 10/30/100 µM. How it is done: as §1
All odorants were stored in the dark at 4°C upon delivery. […]
In this assay, the interaction of an odorant with its cognate olfactory receptor leads to the activation of the human Gαolf G-protein. […] The cells were then transferred into an automated fluorometric imaging plate reader (FLIPR^TETRA, Molecular Devices). […]
as §4

The next assay has as its target T2, OR11A1 (Homo sapiens, UniProt Q9GZK7).
T2 construct: expressed in transfected cells; host or cells: HEKOlf (HEK293 stably expressing human Galpha-olf and bovine CNGA2)
T2 sequence (Q9GZK7 1-315): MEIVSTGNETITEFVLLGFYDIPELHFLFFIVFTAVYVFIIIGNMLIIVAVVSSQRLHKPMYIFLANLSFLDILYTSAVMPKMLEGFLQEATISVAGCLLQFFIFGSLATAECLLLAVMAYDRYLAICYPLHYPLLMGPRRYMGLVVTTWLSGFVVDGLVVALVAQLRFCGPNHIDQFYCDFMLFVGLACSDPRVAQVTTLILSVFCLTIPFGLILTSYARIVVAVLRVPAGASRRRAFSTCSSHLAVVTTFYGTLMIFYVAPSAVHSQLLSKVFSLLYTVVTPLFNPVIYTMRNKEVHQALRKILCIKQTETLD
As to the kind of experiment: CRE-luciferase reporter assay in HEKOlf cells transiently transfected with OR11A1. The format is cell-based. How it is done:
as §1
All odorants were stored in the dark at 4°C upon delivery. They were prepared at 100mM stock solutions using DMSO as a solvent and stored at -20°C. On the day of the experiment the different stock solutions were directly diluted in the assay buffer (Tyrode's buffer) having the following composition: 5mM KCI, 130mM NaCl, 2mM CaCl2, 5mM NaHCO3, 1mM MgCl2, 20mM HEPES, pH7.4.
as §2, §3
In this assay, the interaction of an odorant with its cognate olfactory receptor leads to the activation of the human Gαolf G-protein. Gαolf is a stimulatory G-protein (Gαs) and activates adenylate cyclase, which converts adenosine triphosphate (ATP) into cAMP. Therefore, the activity of the transcribed luciferase can be used as an indication of olfactory receptor activation. 24 hours post-transfection the medium was removed from the transfected cells and 30 µl Tyrode's buffer containing the diluted odorants were added and incubated for 6 hours at 37°C. The cells were then transferred into an automated fluorometric imaging plate reader (FLIPR^TETRA, Molecular Devices). Subsequently, 25µl of a mixture composed of Triton X-100 and luciferin (1:1) were added. The addition of this mixture led to cell lyses and allowed interaction of the luciferase with its substrate luciferin resulting in a detectable emission of light.
The data obtained from different well replicates were analyzed with Excel, ScreenWorks, and SigmaPlot 10. The responses of each receptor to the odorants were divided by the mean responses of the receptor towards Tyrode's buffer (fold of change FOC1). The specificity of FOC1 was checked by comparing with a second FOC (FOC2) obtained by stimulating a control sample, consisting in an empty expression vector, with the same odorants and Tyrode's buffer. The mean and standard deviation of the resulting fold of change values were calculated and plotted in vertical bar charts or concentration-response curves fitted by the SigmaPlot 10 software.

For `C[C@H]1CC[C@@]2(O)C(C)(C)[C@@H]3CC[C@@]2(C)[C@H]1C3` [Patchouli alcohol], in assay [1] (Example 3, figure 4), the fold of change entry is “around 1”. The “response of seven other OR11A1-related olfactory receptors” value in assay [1] (Example 3) was “none of the seven other OR11A1-related olfactory receptors responded”. In addition, the “response in cells transfected with OR11L1” value on OR11L1 is “unable to elicit a detectable response”. The “activation of OR11A1” value is on record as “strongly activated” at OR11A1 (Example 3, 10/30/100 µM); “activated” at OR11A1 (Example 4, 3, 10 and 30 µM (Figure 5)). The concentration for a half-maximal effect (EC50) at OR11A1 (Example 4, Table 5, 0.03-100 µM tested) amounted to 12.1 ± 1.7 µM. On OR11A1 (Example 4, 0.1 to 100 µM (Figure 6)), the “Potency and efficacy on OR11A1 (comparison between odorants)” value was “comparable”.
